Measurements published in patent US11685716B2, “Plant growth inhibiting agent, and plant growth inhibiting method using same” (NATIONAL UNIVERSITY CORPORATION KUMAMOTO UNIVERSITY, priority 2017, dated 2023).
*1 amine or outer side, *2 acyl side, *3 side chain or, on linkers, in order; H or OH if unused. Where a SMILES comes first, the peptide text is derived from it. Bridges are numbered along the chain shown (N, C = ends). Roman numbers before positions name the chains, in order. [ ]: non-standard residue; d: D form. Actinocin(9to1) = Cc1c2oc3c(C)ccc(C(=O)[*:1])c3nc-2c(C(=O)[*:2])c(N)c1=O; NMeV = CN[C@H](C(=O)O)C(C)C; Sar = CNCC(=O)O

What was measured:
[1] = system: HeLa cell; test: Cytotoxicity on human cultured cancer cells, relative survival rate (Evaluation 7); assay type: cell-based; details: control
Description: HeLa cells were cultured in a 96-well plate using Dulbecco's Modified Eagle's Medium (DHEM) under the culture conditions of 5% carbon dioxide and at 37° C. The compound (8b) (final concentration 50 μM), the compound (8f) (final concentration 50 μM), DMSO (final concentration 0.25%), Actinomycin D (final concentration 5 μg/ml) or Nocodazole (final concentration 100 ng/ml) was added 0 (48-hr compound treated sample), 12 (36-hr compound treated sample), 24 (24-hr compound treated sample), 36 (12-hr compound treated sample), and 48 (0-hr compound treated sample) hours after the culture was started. All of the samples were measured for living cell counts 48 hours after the culture was started with a cell counting kit (DOJINDO LABORATORIES), and a measured value of each-time compound treated-sample was divided by the measured value of 0-time compound treated sample to calculate a relative survival rate.
In addition, a transcription inhibitor Actinomycin D and a tubulin polymerization inhibitor Nocodazole were used as controls of the compounds which had cytotoxicity (induces apoptosis). DMSO is a solvent in which the compound (8b) or the compound (8f) was dissolved, and used as a control to observe the affect of the solvent on the cells.

[2] = system: Saccharomyces cerevisiae (BY4741 strain); test: Growth inhibiting activity on Saccharomyces cerevisiae (Evaluation 4); assay type: cell-based; details: final concentration 10 μM or 100 μM, up to 24 hours
Description: The compound (6a) or the compound (7) (final concentration 10 μM or 100 μM), or 50% ethanol (final concentration 0.05% or 0.5%) was added to YPD medium in which Saccharomyces cerevisiae (BY4741 strain) was inoculated to carry out shaking culture at 30° C. Four, 8, 16, and 24 hours after the culture was started, turbidity (OD600) of the culture medium was measured with a spectrophotometer to analyze the affect of the compound (6a) or the compound (7), or 50% ethanol on the growth of the […] cells.

[3] = system: HeLa cell; test: Cell proliferation inhibiting activity on human cultured cancer cells (Evaluation 2); assay type: cell-based; details: final concentration 200 μM, 32 hours
Description: Every 8 hours after the culture was started, living cell counts were measured with a cell counting kit (DOJINDO LABORATORIES). In addition, staurosporine was used as a control of the compound which inhibits the cell proliferation.

[4] = system: E. coli (DH5a strain); test: E. coli growth inhibiting activity (Evaluation 5); assay type: cell-based; details: final concentration 10 μM or 100 μM, up to 6 hours
Description: The compound (6a) or the compound (7) (final concentration 10 μM or 100 μM), 50% ethanol (final concentration 0.05% or 0.5%), or ampicillin (final concentration 50 μg/ml) was added to LB medium in which E. coli (DH5a strain) was added to carry out shaking culture at 37° C. One, 2, 4, and 6 hours after the culture was started, turbidity (OD600) of the culture medium was measured with a spectrophotometer to analyze the affect of the compound (6a) or the compound (7), 50% ethanol, ampicillin on the growth of E. coli cells.
In addition, ampicillin was used as a control of the compound which inhibits the growth.

[5] = system: thale cress; test: Activities on plants: growth of thale cress on agar medium (Evaluation 1, 6); assay type: in vivo, thale cress (Col-0, wild-type strain); details: for twisting of root epidermal cells / abnormality in direction of root growth: scanned images
Description: The test compound (compound (6a)) and DMSO for a control experiment, were added at this stage and blended. Fifty ml each of the medium was dispensed in sterile No. 2 square petri dishes (Eiken Chemical Co., Ltd.) to prepare agar medium. As a plant material, Col-0, which is a wild-type strain of […] used. Seeds, after their surfaces were sterilized, were planted on the agar medium, and vernalized at 4° C. for 16 hours. Growth of the plant was carried out in a growth chamber (SANYO MLR-351) under the conditions of an illuminance of 3 at 23° C. with constant light. The agar medium was allowed to stand upright in the chamber to grow the plant for 7 days. Lids of the petri dishes used for the test were opened, the test results were recorded with a scanner, and with the scanned images, […]

[6] = system: Schizosaccharomyces pombe (wild-type strain 972); test: Growth inhibiting activity on Schizosaccharomyces pombe (Evaluation 3); assay type: cell-based; details: final concentration 100 μM, up to 30 hours
Description: The compound (6a) or the compound (7) (final concentration 100 μM) or 50% ethanol (final concentration 0.5%) was added to YE medium in which Schizosaccharomyces pombe (wild-type strain 972) was inoculated to carry out shaking culture at 30° C. Six, 12, 18, 24, and 30 hours after the culture was started, turbidity (OD600) of the culture medium was measured with a spectrophotometer to analyze the affect of the compound (6a) or the compound (7), or 50% ethanol on the growth of the Schizosaccharomyces pombe cells.

[7] = thale cress Col-0, agar medium, 7 days

Row | Compound | viability of HeLa cells (relative survival rate) ([1]; final concentration 100 ng/ml) | growth of Saccharomyces cerevisiae (OD600) [2] | effect on growth rate of HeLa cells (living cell counts) [3] | E. coli growth (OD600) [4] | plant growth inhibition effect (activity on plant growth) [5, 7] | twisting of root epidermal cells / abnormality in direction of root growth [5, 7] | root epidermal cells, observation by stereomicroscope ([5]; thale cress Col-0, compound added, FIG. 2) | growth of Schizosaccharomyces pombe (OD600) [6] | viability of HeLa cells (relative survival rate) ([1]; final concentration 5 μg/ml)
1 | COC(=O)Nc1nc2ccc(C(=O)c3cccs3)cc2[nH]1 [Nocodazole] | induced apoptosis |  |  |  |  |  |  |  | 
2 | COn1cccc1C(=O)O [Compound 6a, 1-Methoxy-1H-pyrrole-2-carboxylic acid] |  | neither the compound (6a) nor the compound (7) inhibits the growth | no affect at all | neither the compound (6a) nor the compound (7) inhibits the E. coli growth | plant growth inhibition was significantly observed | epidermal cells of the roots were twisted leftward and abnormality in a direction of root growth was observed | epidermal cells of the roots were observed to have been twisted leftward | neither the compound (6a) nor the compound (7) inhibits the growth | 
3 | Cc1c2oc3c(C)ccc(C(=O)N[C@@H]4C(=O)N[C@H](C(C)C)C(=O)N5CCC[C@H]5C(=O)N(C)CC(=O)N(C)[C@@H](C(C)C)C(=O)O[C@@H]4C)c3nc-2c(C(=O)N[C@@H]2C(=O)N[C@H](C(C)C)C(=O)N3CCC[C@H]3C(=O)N(C)CC(=O)N(C)[C@@H](C(C)C)C(=O)O[C@@H]2C)c(N)c1=O [Actinomycin D] (I: T[dV]P[Sar][NMeV] / II: T[dV]P[Sar][NMeV]; ester I:1-I:C, II:1-II:C; linker I:N-II:N via Actinocin(9to1)) |  |  |  |  |  |  |  |  | induced apoptosis
4 | COn1cccc1C(N)=O [Compound 7, 1-Methoxy-1H-pyrrole-2-carboxamide] |  | neither the compound (6a) nor the compound (7) inhibits the growth | no affect at all | neither the compound (6a) nor the compound (7) inhibits the E. coli growth |  | epidermal cells of the roots were twisted leftward and abnormality in a direction of the root growth was observed |  | neither the compound (6a) nor the compound (7) inhibits the growth | 
